Test results: ChEMBL document CHEMBL1141977 (Bioorg Med Chem Lett, 2005)

Assays:
[1] = biological target: Sodium-dependent serotonin transporter (Rattus norvegicus, UniProt P31652); test: Binding affinity determined against Serotonin transporter determined by displacement of [3H]paroxetine from rat cortical membranes; format: cell membranes, Membrane
[2] = biological target: T1, 5-hydroxytryptamine receptor 1A (Homo sapiens) (UniProt P08908); test: Intrinsic activity towards 5-HT1A receptor using [35S]GTP-gamma-S, binding assay; format: functional
T1 sequence (whole entry): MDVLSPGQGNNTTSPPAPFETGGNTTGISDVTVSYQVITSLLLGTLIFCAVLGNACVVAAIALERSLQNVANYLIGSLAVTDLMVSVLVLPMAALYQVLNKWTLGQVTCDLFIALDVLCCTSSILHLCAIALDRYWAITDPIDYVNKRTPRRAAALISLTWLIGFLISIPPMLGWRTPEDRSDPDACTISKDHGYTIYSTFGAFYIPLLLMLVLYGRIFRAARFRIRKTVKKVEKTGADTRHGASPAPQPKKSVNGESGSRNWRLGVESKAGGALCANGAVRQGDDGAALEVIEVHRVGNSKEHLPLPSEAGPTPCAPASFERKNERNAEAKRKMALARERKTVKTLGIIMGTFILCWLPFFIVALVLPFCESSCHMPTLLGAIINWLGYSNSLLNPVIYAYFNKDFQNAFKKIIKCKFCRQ

[3] = biological target: T2, 5-hydroxytryptamine receptor 1A (Homo sapiens, UniProt P08908); test: Binding affinity determined against human 5-hydroxytryptamine 1A receptors transfected into CHO cells.; format: cell-based
T2 sequence (P08908 whole entry): T1 sequence (whole entry)

Sequence of Sodium-dependent serotonin transporter (P31652 whole entry): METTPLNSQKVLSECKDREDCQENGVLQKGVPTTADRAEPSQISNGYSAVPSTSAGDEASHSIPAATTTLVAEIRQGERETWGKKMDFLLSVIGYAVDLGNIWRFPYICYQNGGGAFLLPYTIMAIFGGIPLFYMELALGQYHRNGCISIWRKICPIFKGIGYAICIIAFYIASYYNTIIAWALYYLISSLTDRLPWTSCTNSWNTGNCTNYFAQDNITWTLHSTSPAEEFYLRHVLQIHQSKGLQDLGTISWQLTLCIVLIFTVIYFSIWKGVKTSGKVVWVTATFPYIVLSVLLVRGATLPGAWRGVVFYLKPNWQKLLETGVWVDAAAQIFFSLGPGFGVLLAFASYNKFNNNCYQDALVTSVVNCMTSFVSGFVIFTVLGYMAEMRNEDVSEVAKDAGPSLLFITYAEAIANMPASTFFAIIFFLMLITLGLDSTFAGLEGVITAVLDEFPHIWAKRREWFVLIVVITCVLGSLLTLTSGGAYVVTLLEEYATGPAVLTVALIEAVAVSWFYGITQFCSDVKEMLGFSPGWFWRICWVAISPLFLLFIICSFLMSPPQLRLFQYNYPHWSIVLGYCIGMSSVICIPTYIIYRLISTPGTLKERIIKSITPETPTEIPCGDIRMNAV

Row | SMILES | Ki [1] | Emax [2] | Ki [3]
1 | COc1ccccc1N1CCN([C@H]2CC[C@@H](c3c[nH]c4ccc(F)cc43)CC2)CC1 | 3.3 nM | 5% | 129 nM
2 | Fc1ccc2[nH]cc([C@H]3CC[C@@H](NCCOc4cccc5c4OCCO5)CC3)c2c1 | 12.1 nM | 27% | 
3 | COc1ccccc1OCCN[C@H]1CC[C@H](c2c[nH]c3ccc(F)cc32)CC1 |  | 80% | 22.4 nM
4 | Fc1ccc2[nH]cc([C@H]3CC[C@@H](NCC4COc5ccccc5O4)CC3)c2c1 (stereo not given in full) | 23.2 nM | 44% | 332 nM
5 | Fc1ccc2[nH]cc([C@H]3CC[C@H](N4CCN(c5cccc6[nH]ccc56)CC4)CC3)c2c1 |  | 43% | 
6 | COc1ccccc1OCCN[C@H]1CC[C@@H](c2c[nH]c3ccc(F)cc32)CC1 |  | 22% | 307 nM
7 | Fc1ccc2[nH]cc([C@H]3CC[C@H](NCCOc4cccc5c4OCCO5)CC3)c2c1 | 1.05 nM | 43% | 
8 | Fc1ccc2[nH]cc([C@H]3CC[C@@H](NCCOc4cccc5[nH]ccc45)CC3)c2c1 | 12.6 nM | 7% | 
9 | Fc1ccc2[nH]cc([C@H]3CC[C@@H](N4CCN(c5cccc6[nH]ccc56)CC4)CC3)c2c1 |  | 10% | 
10 | Fc1ccc2[nH]cc([C@H]3CC[C@H](NCC4COc5ccccc5O4)CC3)c2c1 (stereo not given in full) | 14.1 nM | 94% | 194 nM
11 | Fc1ccc2[nH]cc([C@H]3CC[C@H](N4CCN(c5cccc6c5OCCO6)CC4)CC3)c2c1 | 67.2 nM | 57% | 
12 | Fc1ccc2[nH]cc([C@H]3CC[C@H](NCCOc4cccc5[nH]ccc45)CC3)c2c1 | 1.73 nM | 59% | 
13 | COc1ccccc1N1CCN([C@H]2CC[C@H](c3c[nH]c4ccc(F)cc43)CC2)CC1 | 46.1 nM | 29% | 14.3 nM
14 | Fc1ccc2[nH]cc([C@H]3CC[C@@H](N4CCN(c5cccc6c5OCCO6)CC4)CC3)c2c1 | 5.31 nM | 0% | 
